Assay results reported in patent US20050239873A1 (priority 1999, published 2005).

Tests used:
TABX1A cells = assay: Intracellular ATP, luciferase-luciferin assay; assay type: cell-based, murine; conditions: 2 μg/ml plus fructose 50 mM
Protocol: (§1) Fructose is a substrate that provides ATP production through the glycolytic pathway. After a 30-60 minute incubation, cells were harvested and intracellular ATP concentrations were determined by an ATP-dependent luciferase-luciferin assay (Sigma, St. Louis, Mo.). The ATP concentrations in DMSO-treated cells were taken as 100%. In parallel experiments, cell viability was determined after six hours.

TABX2S cells = assay: Intracellular ATP, luciferase-luciferin assay; assay type: cell-based, murine; conditions: 2 μg/ml plus fructose 50 mM
Protocol: as §1

S9 metabolism = assay type: in vitro ADME; conditions: male, hepatic S9 fraction, pH 7.4; for half-life at 500 ng/ml: 37° C.
Description: All chemicals and solvents used for sample preparation and HPLC analysis were analytical grade. Acetonitrile, methanol, and phosphoric acid were purchased from Fisher Scientific (Atlanta, Ga.). Hepatic S9 fractions from male CD2F1 mice, male Sprague Dawley rats, male dogs, and male humans were purchased from In Vitro Technologies (Boston, Mass.). The National Cancer Institute provided samples of the test compounds and male CD2F1 mice. Fischer 344 rats with implanted jugular cannulas were obtained from Charles River Laboratories (Cambridge, Mass.). All animal use and care procedures were approved by the Institutional Committee on Animal Use and Care at the University of Alabama at Birmingham and conformed to the guidelines found in Guide for the Care and Use of Laboratory Animals, National Academy Press, 1996.
To evaluate metabolism of the test compounds by S9 fractions from various species, reaction systems maintained at 37° C. contained 2-OMe-A3 (500 ng/ml) and S9 (1 mg protein/ml) in 100 mM Tris buffer (pH 7.4). At selected times, triplicate portions of the mixtures were removed and processed for analysis, as described above.

cellular O2 consumption = assay: Cellular O2 consumption; assay type: cell-based; conditions: compared to antimycin A3

Row | Compound | ATP level, of control (TABX1A cells) | ATP level, of control (TABX2S cells) | half-life at 2000 ng/ml (S9 metabolism; CD2F1, mouse) [min] | half-life at 500 ng/ml (S9 metabolism; CD2F1, mouse) [min] | half-life at 2000 ng/ml (S9 metabolism; Sprague Dawley, rat) [min] | half-life at 500 ng/ml (S9 metabolism; Sprague Dawley, rat) [min] | half-life at 2000 ng/ml (S9 metabolism; dog) [min] | half-life at 500 ng/ml (S9 metabolism; dog) [min] | effect on cellular O2 consumption (cellular O2 consumption)
1 | antimycin A | approximately 60% | approximately 60% |  |  |  |  |  |  | 
2 | CCCC[C@H]1C(=O)OC(C)[C@H](NC(=O)c2cccc(NC=O)c2OC)C(=O)O[C@@H](C)C1OC(=O)CC(C)C (stereo partly drawn) [2-OMeA3, Antimycin A3 methyl ether] |  |  | > 5 | > 5 | > 5 | > 5 | > 5 | > 5 | negligible effect
